Reference: patent US20240208961A1, “EIF4E INHIBITORS AND USES THEREOF” (PIC Therapeutics, Inc., priority 2022, published 2024)
Read-outs that look alike come from different tables or passages of the source.

Assay: Pharmacokinetic study of I-11 in female BALB/c mice (Example 4)
Assay type: in vivo, Balb/c mouse
Conditions: mouse, plasma; for concentration at 0.25 hr / concentration at 0.5 hr / concentration at 1 hr / concentration at 2 hr / concentration at 4 hr / concentration at 8 hr / concentration at 24 hr / concentration at 0.083 hr: female, BALB/c, po
Experimental: Pharmacokinetic Study in Female BALB/c Mice: Balb/c mouse, 17-19 g, 8-10 weeks, female, N=27, purchased from JH Laboratory Animal Co. LTD
Fasted overnight and fed at 4 hr post dosing.
Animals dosed with sampling at 0.083, 0.25, 0.5, 1, 2, 4, 8, 24 hr post dose. 8 time points. Semi-serial bleeding for plasma only. The animals were restrained manually at the designated time points. Approx. 110 μL of blood/time point was taken from the animals via facial vein into tubes with K2EDTA. Blood sample was centrifuged at 4° C. (2000 g, 5 min) to obtain plasma within 15 m after sample collection. Put on wet ice, then plasma samples were stored at approximately −70° C. until analysis.
For oral gavage, compound was dosed as a suspension in […] carboxymethyl cellulose (CMC), 0.2% Tween 80 in water. Compound was orally dosed at 50 mg/Kg, at 100 mg/Kg.
For IV dosing, compound was dissolved into a solution of […], […] HS 15 and 90% Saline. Compound was IV dosed at 5 mg/Kg.
Plasma samples were analyzed for I-11 using LC-MS using a calibration curve of known concentrations.
FIG. 1 describes the mean plasma concentration-time profiles of I-11 after single IV dose of 5 mg/kg, PO dose of 50 mg/kg and 100 mg/kg in female Balb/c mice (N=3/time point). • Note: • 1. […] The IV dosing solutions were prepared in 5% DMSO+5% Solutol HS15+90% Saline. The PO dosing solutions were prepared in 1% CMC-Na+0.2% Tween 80 in water. • 3. BQL=Below quantifiable limit of 3.00 ng/mL for I-11 in female Balb/c mouse plasma samples. • 4. PK parameters were estimated by non-compartmental model using WinNonlin 8.2. If the adjusted rsq (linear regression coefficient of the concentration value on the terminal phase) is less than 0.9, T1/2 might not be accurately estimated. • 5. F value was determined by the following equation: • If AUClast/AUCINF>80%:
F=(AUCINF-EX×DOSEIV)/(AUCINF-IV×DOSEEX)[…] • If AUClast/AUCINF<80% or AUCINF not available:
F=([…])/(AUClast-IV×DOSEEX)[…] • 6. NA: Not available.

[1] = 50 mg/kg, PO 50 mg/kg, read-out: Plasma concentration Mean
[2] = 50 mg/kg, PO 50 mg/kg, read-out: Plasma concentration Individual
[3] = 100 mg/kg, PO 100 mg/kg, read-out: Plasma concentration Individual
[4] = 100 mg/kg, PO 100 mg/kg, read-out: Plasma concentration Mean

In the case of `CC(C)Cc1sc(Nc2ncc(-c3cccs3)cc2C(=O)O)nc1C(C)(C)C` [Compound I-11], the concentration at 0.25 hr [1] is reported as 1760 ng/mL, the concentration at 0.5 hr [2] is reported as 3830 ng/mL and the concentration at 0.5 hr [1] is reported as 5850 ng/mL. For the same molecule, the concentration at 1 hr [2] was 8760 ng/mL, the concentration at 1 hr [1] was 7120 ng/mL and the concentration at 2 hr [2] was 7260 ng/mL. For the same molecule, the concentration at 2 hr [1] was 6310 ng/mL, the concentration at 4 hr [2] was 1170 ng/mL and the concentration at 4 hr [1] was 1730 ng/mL. The concentration at 8 hr [2] was 367 ng/mL, the concentration at 8 hr [1] was 314 ng/mL and the concentration at 24 hr (50 mg/kg, PO 50 mg/kg) was 83.3 ng/mL. It also gave a concentration at 0.083 hr [3] of 188 ng/mL, a concentration at 0.083 hr [4] of 246 ng/mL and a concentration at 0.25 hr [3] of 2690 ng/mL. For the same molecule, the concentration at 0.25 hr [4] was 2790 ng/mL, the concentration at 0.5 hr [4] was 7820 ng/mL and the concentration at 1 hr [3] was 8840 ng/mL. For the same molecule, the concentration at 1 hr [4] was 7530 ng/mL, the concentration at 2 hr [3] was 18600 ng/mL and the concentration at 2 hr [4] was 15000 ng/mL. The concentration at 4 hr [4] was 8190 ng/mL, the concentration at 8 hr [4] was 633 ng/mL and the concentration at 24 hr (100 mg/kg, PO 100 mg/kg) was 60.8 ng/mL. The AUC(0-inf) (IV 5 mg/kg) was 5280 ng·h/mL, the AUC(0-t) (IV 5 mg/kg) was 5220 ng·h/mL and the C0 (IV 5 mg/kg) was 13600 ng/mL. For the same molecule, the MRT inf (IV 5 mg/kg) was 0.73 h, the MRT last (IV 5 mg/kg) was 0.594 h and the half-life (IV 5 mg/kg) was 2.28 h. It also gave a Vd (IV 5 mg/kg, read-out: Vss) of 0.69 L/kg, an AUC(0-inf) (PO 50 mg/kg) of 26900 ng·h/mL and an AUC(0-t) (PO 50 mg/kg) of 26400 ng·h/mL. The Cmax (PO 50 mg/kg) was 7120 ng/mL, the MRT inf (PO 50 mg/kg) was 3.79 h and the MRT last (PO 50 mg/kg) was 3.31 h. The Tmax (PO 50 mg/kg) was 1 h, the half-life (PO 50 mg/kg) was 4.05 h and the AUC(0-inf) (PO 100 mg/kg) was 63400 ng·h/mL. The AUC(0-t) (PO 100 mg/kg) was 63100 ng·h/mL, the Cmax (PO 100 mg/kg) was 15000 ng/mL and the MRT inf (PO 100 mg/kg) was 3.49 h. The MRT last (PO 100 mg/kg) was 3.37 h, the Tmax (PO 100 mg/kg) was 2 h and the half-life (PO 100 mg/kg) was 3.19 h.
